Test results reported in patent EP4653445A1, “CDK INHIBITOR AND CRYSTAL FORM OF PHARMACEUTICALLY ACCEPTABLE SALT THEREOF, AND USE THEREOF” (CSPC Zhongqi Pharmaceutical Technology (Shijiazhuang) Co., …, priority 2023, dated 2024).
Where “and” joins values, the source holds several entries; their conditions need not be identical. Equal values may be shown once.

How the values were obtained:
SK-MEL-5 = assay: In vitro tumor cell proliferation inhibition test (CTG); format: cell-based, Human; details: 4-7 days
Description: (§1) The tumor cell strains were cultured in an incubator at 37 °C with 5% CO2. The cells were subcultured regularly, and those in the logarithmic growth phase were taken for plating. The cells were stained with trypan blue and the viable cells were counted. The cell concentration was adjusted to an appropriate level. The cell suspension was added to each well of the culture plate, and the culture medium without cells was added to the blank control wells. The culture plate was incubated overnight in an incubator at 37 °C, 5% CO2, and 100% RH. […] The compound working solution was added to the cell culture plate, and DMSO at the same final concentration was added to the solvent control wells. Then the plate was returned to the incubator for 4-7 days of culture. The cell viability was detected according to the instructions of the Promega CellTiter-Glo (CTG) Luminescent Cell Viability Assay Kit (Promega-G7573).
(§2) The inhibition rates of the compound at different concentrations were calculated in Excel, then the inhibition curve was plotted using GraphPad Prism software and relevant parameters, including the minimum inhibition rate, maximum inhibition rate, and IC50 were calculated.

JHH-7 = assay: as above; format: cell-based, Human; details: 4-7 days
Description: as §1, §2

MOLM-13 = assay: as above; format: cell-based, Human; details: 4-7 days
Description: as §1, §2

Huh-7 = assay: as above; format: cell-based, Human; details: 4-7 days
Description: as §1, §2

MV-4-11 = assay: as above; format: cell-based, Human; details: 4-7 days
Description: as §1, §2

HCT 116 = assay: as above; format: cell-based, Human; details: 4-7 days
Description: as §1, §2

HT-29 = assay: as above; format: cell-based, Human; details: 4-7 days
Description: as §1, §2

NCI-H211 = assay: as above; format: cell-based, Human; details: 4-7 days
Description: as §1, §2

A2780 = assay: as above; format: cell-based, Human; details: 4-7 days
Description: as §1, §2

Hep3B (Rb-) = assay: as above; format: cell-based, Human; details: Liver cancer, 4-7 days
Description: as §1, §2

COLO 205 = assay: as above; format: cell-based, Human; details: 4-7 days
Description: as §1, §2

MDA-MB-468 (Rb-) = assay: as above; format: cell-based; details: 4-7 days; for Maximum Inhibition Rate: Breast cancer (primary resistance to Palbociclib); for IC50: Homo sapiens, MDA-MB-468, Breast cancer (primary resistance to Palbociclib)
Description: as §1, with “The” for “The tumor cell strains were cultured in an incubator at 37 °C with 5% CO2. The”, “wells.” for “wells. The culture plate was incubated overnight in an incubator at 37 °C, 5% CO2, and 100% RH.”, “(Promega-G7573). […] The IC50 was calculated using the following equation: [formula] • X: log(concentration) • Y: response value, negatively correlated with X • HillSlope: slope factor • Note: […]” for “(Promega-G7573).”

HCC1187 = assay: as above; format: cell-based; details: 4-7 days; for IC50: Homo sapiens, HCC1187, Triple-negative breast cancer; for Maximum Inhibition Rate: Triple-negative breast cancer
Description: as §1, with “The” for “The tumor cell strains were cultured in an incubator at 37 °C with 5% CO2. The”, “wells.” for “wells. The culture plate was incubated overnight in an incubator at 37 °C, 5% CO2, and 100% RH.”, “(Promega-G7573). […] The IC50 was calculated using the following equation: [formula] • X: log(concentration) • Y: response value, negatively correlated with X • HillSlope: slope factor • Note: […]” for “(Promega-G7573).”

MDA-MB-231 = assay: as above; format: cell-based; details: 4-7 days; for IC50: Homo sapiens, MDA-MB-231, Triple-negative breast cancer; for Maximum Inhibition Rate: Triple-negative breast cancer
Description: as §1, with “The” for “The tumor cell strains were cultured in an incubator at 37 °C with 5% CO2. The”, “wells.” for “wells. The culture plate was incubated overnight in an incubator at 37 °C, 5% CO2, and 100% RH.”, “(Promega-G7573). […] The IC50 was calculated using the following equation: [formula] • X: log(concentration) • Y: response value, negatively correlated with X • HillSlope: slope factor • Note: […]” for “(Promega-G7573).”

MCF-7 = assay: as above; format: cell-based; details: 4-7 days; for Maximum Inhibition Rate: HR+/HER2- Breast cancer; for IC50: Homo sapiens, MCF7, HR+/HER2- Breast cancer
Description: as §1, with “The” for “The tumor cell strains were cultured in an incubator at 37 °C with 5% CO2. The”, “wells.” for “wells. The culture plate was incubated overnight in an incubator at 37 °C, 5% CO2, and 100% RH.”, “(Promega-G7573). […] The IC50 was calculated using the following equation: [formula] • X: log(concentration) • Y: response value, negatively correlated with X • HillSlope: slope factor • Note: […]” for “(Promega-G7573).”

MDA-MB-453 = assay: as above; format: cell-based; details: 4-7 days; for Maximum Inhibition Rate: HR-/HER2+ Breast cancer; for IC50: Homo sapiens, MDA-MB-453, HR-/HER2+ Breast cancer
Description: as §1, with “The” for “The tumor cell strains were cultured in an incubator at 37 °C with 5% CO2. The”, “wells.” for “wells. The culture plate was incubated overnight in an incubator at 37 °C, 5% CO2, and 100% RH.”, “(Promega-G7573). […] The IC50 was calculated using the following equation: [formula] • X: log(concentration) • Y: response value, negatively correlated with X • HillSlope: slope factor • Note: […]” for “(Promega-G7573).”

T47D = assay: as above; format: cell-based; details: HR+/HER2- Breast cancer, 4-7 days; for IC50: Homo sapiens, T47D
Description: as §1, with “The” for “The tumor cell strains were cultured in an incubator at 37 °C with 5% CO2. The”, “wells.” for “wells. The culture plate was incubated overnight in an incubator at 37 °C, 5% CO2, and 100% RH.”, “(Promega-G7573). […] The IC50 was calculated using the following equation: [formula] • X: log(concentration) • Y: response value, negatively correlated with X • HillSlope: slope factor • Note: […]” for “(Promega-G7573).”

xMCF-7/Palbo-R = assay: as above; format: cell-based; details: Breast cancer (acquired resistance to Palbociclib), 4-7 days
Description: as §1, with “The” for “The tumor cell strains were cultured in an incubator at 37 °C with 5% CO2. The”, “wells.” for “wells. The culture plate was incubated overnight in an incubator at 37 °C, 5% CO2, and 100% RH.”, “(Promega-G7573). […] The IC50 was calculated using the following equation: [formula] • X: log(concentration) • Y: response value, negatively correlated with X • HillSlope: slope factor • Note: […]” for “(Promega-G7573).”

[1] = Solubility comparison in water, SGF, FaSSIF and FeSSIF (HPLC of filtrates, XRPD of filter cakes); details: time not stated

CC(=O)c1c(C)c2cnc(Nc3ccc4c(c3)OC[C@@H]3CN(C5CCN(C)CC5)CCN43)nc2n(C2CCCC2)c1=O [Compound A]
IC50 (SK-MEL-5; Homo sapiens, SK-MEL-5, Melanoma): 9500 nM | Maximum Inhibition Rate (SK-MEL-5; Melanoma): 99.213% | IC50 (JHH-7; Homo sapiens, JHH7, Liver cancer): 107 nM | Maximum Inhibition Rate (JHH-7; Liver cancer): 99.394% | Maximum Inhibition Rate (MOLM-13; Hematological tumor): 99.993% | IC50 (MOLM-13; Homo sapiens, MOLM-13, Hematological tumor): 370 nM | IC50 (Huh-7; Homo sapiens, Huh-7, Liver cancer): 107 nM | Maximum Inhibition Rate (Huh-7; Liver cancer): 99.447% | Maximum Inhibition Rate (MV-4-11; Hematological tumor): 99.897% | IC50 (MV-4-11; Homo sapiens, MV4-11, Hematological tumor): 102 nM | Maximum Inhibition Rate (HCT 116; Colorectal cancer): 99.244% | IC50 (HCT 116; Homo sapiens, HCT-116, Colorectal cancer): 134 nM | Maximum Inhibition Rate (HT-29; Colorectal cancer): 95.622% | IC50 (HT-29; Homo sapiens, HT-29, Colorectal cancer): 113 nM | IC50 (NCI-H211; Homo sapiens, NCI-H211, Small cell lung cancer): 201 nM | Maximum Inhibition Rate (NCI-H211; Small cell lung cancer): 99.883% | IC50 (A2780; Homo sapiens, A2780, Ovarian cancer): 438 nM | Maximum Inhibition Rate (A2780; Ovarian cancer): 98.887% | IC50 (Hep3B (Rb-); Homo sapiens, Hep3B): 3330 nM | Maximum Inhibition Rate (Hep3B (Rb-)): 99.055% | Maximum Inhibition Rate (Hep3B (Rb-); listed as compound A): exceeding 99% | Maximum Inhibition Rate (COLO 205; Colorectal cancer): 99.093% | IC50 (COLO 205; Homo sapiens, COLO 205, Colorectal cancer): 734 nM | Maximum Inhibition Rate (MDA-MB-468 (Rb-)): 99.693% | Maximum Inhibition Rate (MDA-MB-468 (Rb-); listed as compound A): exceeding 99% | IC50 (MDA-MB-468 (Rb-)): 440 nM | IC50 (HCC1187): 1110 nM | Maximum Inhibition Rate (HCC1187): 99.777% | IC50 (MDA-MB-231): 3450 nM | Maximum Inhibition Rate (MDA-MB-231): 99.567% | Maximum Inhibition Rate (MCF-7): 99.937% | IC50 (MCF-7): 76 nM | Maximum Inhibition Rate (MDA-MB-453): 102.600% | Maximum Inhibition Rate (MDA-MB-453; listed as compound A): ~100% | IC50 (MDA-MB-453): 384 nM | Maximum Inhibition Rate (T47D): 99.910% | IC50 (T47D): 1500 nM | IC50 (xMCF-7/Palbo-R): 3090 nM | Maximum Inhibition Rate (xMCF-7/Palbo-R): 99.677% | solubility in SGF ([1]; SGF, listed as free base): greater than 5 mg/mL | solubility in water ([1]; water): approximately 0.003 mg/mL

CC(=O)c1c(C)c2cnc(Nc3ccc(N4CCNCC4)cn3)nc2n(C2CCCC2)c1=O [Palbociclib, reference compound]
Maximum Inhibition Rate (MDA-MB-468 (Rb-)): 34% and 34.044% | IC50 (MDA-MB-468 (Rb-)): > 5000 nM | IC50 (HCC1187): > 5000 nM | Maximum Inhibition Rate (HCC1187): 11.183% | IC50 (MDA-MB-231): > 5000 nM | Maximum Inhibition Rate (MDA-MB-231): 41.943% | Maximum Inhibition Rate (MCF-7): 96.983% | IC50 (MCF-7): 52 nM | IC50 (MDA-MB-453): 188 nM | Maximum Inhibition Rate (T47D): 48.850% | IC50 (T47D): > 5000 nM | IC50 (xMCF-7/Palbo-R): 7700 nM | Maximum Inhibition Rate (xMCF-7/Palbo-R): 98.367%
